Data as given in patent US12098147B2, “Compound having novel structure, complex comprising same, anti-cancer pharmaceutical composition, and anti-cancer drug” (ETNOVA THERAPEUTICS CORP., priority 2018, dated 2024).
Where two headings read alike, the source gives them in different places.

Tests used:
[1] = system: several cancer cell lines; assay: CCK-8 cell viability, panel of cancer cell lines compared in words (FIGS. 3a to 3e); format: cell-based, human; conditions: for effect on cancer cell lines compared with the rest of the compounds, in words: comparator the rest of the compounds; for toxic effect on cancer cell lines compared with cisplatin and BTA, in words: comparators cisplatin and BTA
Description: (§1) To identify the anticancer effect of the compounds L1, L2, and L3 according to Examples 1 to 3 of the present disclosure, and the complexes L1Pt, L2Pt, and L3Pt according to Examples 4 to 6 of the disclosure, the cell viability analysis of cancer cells using CCK-8 was performed on several cancer cell lines (colorectal cancer cell line (HT-29 cell line), breast cancer cell line (MCF-7 and MDA-MB-231), cervical cancer cell line (HeLa cell line), liver cancer cell line (Huh-7 and HepG2), brain glioma cell line (C6), lung cancer (A549), prostate cancer (PC3), kidney cancer (Caki-2), normal liver cell line (AML-12), embryonic kidney cell line (HEK-293), neural stem cell line (NE-4C) and normal breast epithelial cell line (MCF10a)).
(§2) CCK-8 (Cell counting kit-8) is analyzed using a highly water-soluble tetrazolium salt-[…]. [2-(2-methoxy-4-nitrophenyl)-3-(4-nitrophenyl)(2,4-disulfophenyl)-2H-tetrazolium, monosodium salt] is reduced under the presence of an electron medium to produces a water-soluble formazan orange dye. The amount of the formazan dye produced by dehydrogenase in a cell is directly proportional to the number of living cells.
(§3) In an experimental method for evaluating the properties of the compounds according to the present disclosure, various cancer cell lines derived from humans and normal cell lines of each tissue derived from humans and mice were used in this experiment. A complete growth medium corresponding to each cell line and having 10% of heat-inactivated FBS added thereto was used to maintain corresponding cells. The maintained cells were suspended in a volume of 200 μl at a density of 1 or 1.5×10^4 cells and planted in each well of a 96 well plate. The cells were attached to a 37° C. and 5% CO2 incubator for more than 14 hours, and we waited for a stable state. The next day, we removed the medium from the well. 100 μl of serum-free medium containing drugs of various concentrations (0 (control), 2.5, 5, 10, 20, 30, 40, 50, 100, 200 μM) was added to each well and the cells was cultured therein. On 22 hours after the incubation, 10 μl of CCK-8 solution was added to each well, followed by incubation for 2 hours. A plate on which the culture was completed was measured in terms of absorbance at 450 nm using a microplate reader.
Further, FIGS. 3a to 3e show a graph in which a IC50 value which is obtained based on 2 to 3 times executions of the cell viability analysis is converted to a Log IC50 value. […] The comparative reliability values for BTA were expressed as […], ##p<0.01, and ## #p<0.001. A red line represents the value of cisplatin. A blue line represents the value of BTA.

PC3 = assay: CCK-8 cell viability, PC3 prostate cancer cell line; format: cell-based, human; conditions: 24 hours, mean ± SD of 2 to 3 experiments
Description: as §1, §2, §3
(§4) Cell Viability Calculation:
(§5) • A: Absorbance value measured in a control well • B: Absorbance value measured in a well containing the drug
(§6) In Table 1 below, each compound was applied to the cells at 0, 2.5, 5, 10, 20, 30, 40, 50, 100, and 200 μM, and the cells was cultured in a medium free of serum for 24 hours. The measured absorbance value was converted to a % value based on a value of 0, such that a IC50 value was calculated. Each experiment was performed 2 to 3 times and a standard deviation value was obtained.

Huh-7 = assay: CCK-8 cell viability, Huh-7 liver cancer cell line; format: cell-based, human; conditions: 24 hours, mean ± SD of 2 to 3 experiments
Description: as §1, §2, §3, §4, §5, §6

MCF10a = assay: CCK-8 cell viability, MCF10a normal breast epithelial cell line; format: cell-based; conditions: for cytotoxicity against breast epithelial cells, in words: breast epithelial cells (MCF10a), FIG. 4; for IC50: serum-free medium, 24 hours, CCK-8, mean ± SD of 2 to 3 experiments
Description: as §1, §2, §3, §4, §5, §6

C6 = assay: CCK-8 cell viability, C6 brain glioma cell line; format: cell-based, human; conditions: 24 hours, mean ± SD of 2 to 3 experiments
Description: as §1, §2, §3, §4, §5, §6

NE-4C = assay: CCK-8 cell viability, NE-4C neural stem cell line; format: cell-based; conditions: for IC50: serum-free medium, 24 hours, CCK-8, mean ± SD of 2 to 3 experiments, read-out: IC50 NC-4C (Neural stem cell); for toxicity against brain neurons, in words: brain neurons (NE-4C), FIG. 4
Description: as §2, §3, §4, §5, §6

HepG2 = assay: CCK-8 cell viability, HepG2 liver cancer cell line; format: cell-based, human; conditions: 24 hours, mean ± SD of 2 to 3 experiments
Description: as §1, §2, §3, §4, §5, §6

AML12 = assay: CCK-8 cell viability, AML-12 normal liver cell line; format: cell-based; conditions: for IC50: serum-free medium, 24 hours, CCK-8, mean ± SD of 2 to 3 experiments
Description: as §2, §3, §4, §5, §6

Caki-2 = assay: CCK-8 cell viability, Caki-2 kidney cancer cell line; format: cell-based, human; conditions: serum-free medium, 24 hours, mean ± SD of 2 to 3 experiments
Description: as §1, §2, §3, §4, §5, §6

HT-29 cell line = assay: CCK-8 cell viability, HT-29 colorectal cancer cell line; format: cell-based, human; conditions: serum-free medium, 24 hours, mean ± SD of 2 to 3 experiments
Description: as §1, §2, §3, §4, §5, §6

MCF-7 = assay: CCK-8 cell viability, MCF-7 breast cancer cell line; format: cell-based, human; conditions: serum-free medium, 24 hours, mean ± SD of 2 to 3 experiments
Description: as §1, §2, §3, §4, §5, §6

HeLa cell line = assay: CCK-8 cell viability, HeLa cervical cancer cell line; format: cell-based, human; conditions: serum-free medium, 24 hours, mean ± SD of 2 to 3 experiments
Description: as §1, §2, §3, §4, §5, §6

A549 = assay: CCK-8 cell viability, A549 lung cancer cell line; format: cell-based, human; conditions: serum-free medium, 24 hours, mean ± SD of 2 to 3 experiments
Description: as §1, §2, §3, §4, §5, §6

MDA-MB-231 = assay: CCK-8 cell viability, MDA-MB-231 breast cancer cell line; format: cell-based, human; conditions: serum-free medium, 24 hours, mean ± SD of 2 to 3 experiments
Description: as §1, §2, §3, §4, §5, §6

HEK-293 = assay: CCK-8 cell viability, HEK-293 embryonic kidney cell line; format: cell-based; conditions: serum-free medium, 24 hours, mean ± SD of 2 to 3 experiments, read-out: IC50 HEK293 (embryonic kidney)
Description: as §1, §2, §3, §4, §5, §6

[2] = Log IC50 comparison, FIGS. 3a to 3e

In the case of NCC(N)C(=O)Nc1ccc(-c2nc3ccccc3s2)cc1 (stereo not drawn) [Example L1, 2,3-diamoniumtrifluoroacetate-N-(4-benzothiazol-2-yl-phenyl)-propionamide], the “effect on cancer cell lines compared with the rest of the compounds, in words” value [1, 2] is reported as “superior effects on breast cancer, liver cancer, brain glioma, lung cancer, prostate cancer, and kidney cancer than the rest of the compounds did”, the “toxic effect on cancer cell lines compared with cisplatin and BTA, in words” value [1, 2] is reported as “greater toxic effect against cancer cell lines of colorectal cancer, breast cancer, liver cancer, brain glioma, lung cancer, prostate cancer, and kidney cancer than the cisplatin and BTA did” and the IC50 (PC3; Homo sapiens, PC-3, serum-free medium) is reported as 94.99 ± 0.82 µM. For the same molecule, the IC50 (Huh-7; Homo sapiens, Huh-7, serum-free medium) was 69.1 ± 5.25 µM, the “cytotoxicity against breast epithelial cells, in words” value (from here on “cytotoxicity”) (MCF10a) was “weak cytotoxicity” and the IC50 (C6; Rattus norvegicus, C6, serum-free medium) was 77.8 ± 9.73 µM. The IC50 (NE-4C; Neural stem cell) was 36.8 ± 3.66 µM, the “toxicity against brain neurons, in words” value (NE-4C) was “greater toxicity than BTA did” and the IC50 (HepG2; Homo sapiens, HepG2, serum-free medium) was 5.94 ± 0.501 µM.
With O=C(Nc1ccc(-c2nc3ccccc3s2)cc1)C1CN=Cc2ccccc2[O][Pt][O]c2ccccc2C=N1 (stereo not drawn) [Example L2Pt] the “cell toxicity on cancer cell lines compared with BTA, in words” value ([1]; Log IC50 comparison, FIGS. 3a to 3e, comparator BTA) was “greater cell toxicity on colorectal cancer than BTA did”, the IC50 (PC3; serum-free medium) was greater than 500 µM and the “toxicity against normal hepatocytes, in words” value (AML12; normal hepatocytes (AML12), FIG. 4) was “did not exhibit liver cytotoxicity”. The IC50 (AML12) was greater than 500 µM, the IC50 (Huh-7; serum-free medium) was 197 ± 3.75 µM and the “cytotoxicity” value (MCF10a) was “weaker cytotoxicity or no cytotoxicity than cisplatin and BTA did”. The IC50 (MCF10a) was greater than 500 µM, the IC50 (Caki-2) was greater than 500 µM and the IC50 (HT-29 cell line) was 173 ± 3.23 µM. It also gave an IC50 (MCF-7) greater than 500 µM, an IC50 (C6; serum-free medium) greater than 500 µM and an IC50 (HeLa cell line) of 221 ± 15.8 µM. For the same molecule, the IC50 (A549) was greater than 500 µM, the “toxicity against brain neurons, in words” value (NE-4C) was “greater toxicity than BTA did” and the IC50 (NE-4C) was 47 ± 4.12 µM. For the same molecule, the IC50 (MDA-MB-231) was greater than 500 µM, the IC50 (HEK-293) was 212 ± 14.9 µM and the IC50 (HepG2; serum-free medium) was 31.6 ± 3.62 µM.
For N.N.[Cl][Pt][Cl] [Cisplatin, cisplatin, reference compound], the “effect on cancer cell lines, in words” value ([1]; Log IC50, FIGS. 3a to 3e, no comparator) was “did not have a great effect on lung cancer, prostate cancer, and kidney cancer”, the IC50 (PC3; serum-free medium) was greater than 500 µM and the IC50 (AML12) was 32.1 ± 4.45 µM. The IC50 (Huh-7; serum-free medium) was 38.6 ± 18.5 µM, the IC50 (MCF10a) was 96 ± 6.72 µM and the IC50 (Caki-2) was greater than 500 µM. The IC50 (HT-29 cell line) was 39.1 ± 0.61 µM, the IC50 (MCF-7) was 204 ± 27.3 µM and the IC50 (C6; serum-free medium) was 227 ± 34.3 µM. The IC50 (HeLa cell line) was 26.2 ± 5.61 µM, the IC50 (A549) was greater than 500 µM and the IC50 (NE-4C) was 9.01 ± 0.28 µM. It also gave an IC50 (MDA-MB-231) of 181 ± 48.7 µM, an IC50 (HEK-293) of 65.5 ± 4.06 µM and an IC50 (HepG2; serum-free medium) of 54.2 ± 31.8 µM.
NCC(N)C(=O)Nc1ccc(-c2nc3ccccc3s2)cc1.[Cl][Pt][Cl] (stereo not drawn) [Example L1Pt] was tested, and the “effect on cancer cell lines compared with the rest of the compounds, in words” value [1, 2] was “superior effects on breast cancer, liver cancer, brain glioma, lung cancer, prostate cancer, and kidney cancer than the rest of the compounds did”, the “toxic effect on cancer cell lines compared with cisplatin and BTA, in words” value [1, 2] was “greater toxic effect against cancer cell lines of colorectal cancer, breast cancer, liver cancer, brain glioma, lung cancer, prostate cancer, and kidney cancer than the cisplatin and BTA did” and the IC50 (PC3; serum-free medium) was 55.7 ± 7.47 µM. For the same molecule, the IC50 (AML12) was 139.1 ± 0.85 µM, the IC50 (Huh-7; serum-free medium) was 69.4 ± 1.24 µM and the “cytotoxicity” value (MCF10a) was “weak cytotoxicity”. The IC50 (MCF10a) was 46.9 ± 5.14 µM, the IC50 (Caki-2) was 106 ± 8.54 µM and the IC50 (HT-29 cell line) was 42.6 ± 5.61 µM. For the same molecule, the IC50 (MCF-7) was 59 ± 11.1 µM, the IC50 (C6; serum-free medium) was 93.3 ± 22.7 µM and the IC50 (HeLa cell line) was 64.75 ± 0.31 µM. The IC50 (A549) was 167 ± 11.2 µM, the “toxicity against brain neurons, in words” value (NE-4C) was “greater toxicity than BTA did” and the IC50 (NE-4C) was 25.7 ± 1.66 µM. For the same molecule, the IC50 (MDA-MB-231) was 80.8 ± 10.5 µM, the IC50 (HEK-293) was 54.9 ± 2.83 µM and the IC50 (HepG2; serum-free medium) was 7.49 ± 0.159 µM.
